From PMC11335392, “Characterization of an Estrogen Receptor α-Selective ^18 F-Estradiol PET Tracer” (World Journal of Nuclear Medicine, 2024)

Target: T1, estrogen receptor α (ERα) (Homo sapiens, UniProt P03372)
T1 construct: gene ESR1; full-length human ESR1 (ERα), transiently expressed in HEK293T cells
T1 sequence (P03372 1-595): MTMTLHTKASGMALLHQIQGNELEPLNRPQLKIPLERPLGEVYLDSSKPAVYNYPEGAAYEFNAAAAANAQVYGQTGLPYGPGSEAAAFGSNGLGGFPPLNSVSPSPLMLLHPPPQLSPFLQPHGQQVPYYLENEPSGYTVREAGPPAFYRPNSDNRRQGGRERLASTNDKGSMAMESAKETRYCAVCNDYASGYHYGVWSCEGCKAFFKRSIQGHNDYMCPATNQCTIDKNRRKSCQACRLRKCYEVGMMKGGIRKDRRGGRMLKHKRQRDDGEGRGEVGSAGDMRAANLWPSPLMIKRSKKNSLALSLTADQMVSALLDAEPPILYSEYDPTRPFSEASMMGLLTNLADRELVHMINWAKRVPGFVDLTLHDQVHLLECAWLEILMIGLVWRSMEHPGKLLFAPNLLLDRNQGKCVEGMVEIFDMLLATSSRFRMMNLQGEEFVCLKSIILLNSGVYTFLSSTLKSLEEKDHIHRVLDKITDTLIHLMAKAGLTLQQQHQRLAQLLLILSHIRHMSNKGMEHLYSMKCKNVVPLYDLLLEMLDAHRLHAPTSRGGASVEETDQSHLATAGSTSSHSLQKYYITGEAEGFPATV
Experiment: radioligand saturation binding with Scatchard analysis in ERα-transfected HEK293T cells
Format: cell-based

C[C@]12CC[C@@H]3c4ccc(O)cc4CC[C@H]3[C@@H]1C[C@@H](F)[C@@H]2O [[18F]FES, 16α-[18F]fluoro-17β-estradiol]
Kd: 94 nM
